For assay [1], the system named is Chymotrypsin-like activity (β5/β5i). The assay is described as follows: Proteasome inhibitory activity, subunit-specific cell lysate IC50, chymotrypsin-like activity. It is filed as biochemical.
The next assay addresses LMP2/β1i (Homo sapiens, UniProt P28065+P40306). The assay is described as follows: Proteasome inhibitory activity, subunit-specific cell lysate IC50, LMP2. It is filed as biochemical. On the set-up: Subunit-Specific Cell lysate IC50 (μM); endogenous in cells.
A further assay relates to BV-2 cells. The assay is described as follows: LPS-induced IL-6 production in BV-2 microglial cell line. It is filed as cell-based. The settings on record: FIG. 14. The source says:
To test this, we used BV-2 cell line, a microglial cell line, known to upregulate cytokines in response to LPS treatment. […] We suspect these contradictory results are due to cell type-specific role of LMP2, indicating a distinct role of LMP2 in microglia inflammatory response.

Assay [2] relates to human peripheral blood mononuclear cells (PBMCs). Particulars: previous studies; cited from earlier work.
[3] abbreviates: read-out: Subunit-Specific Cell lysate IC50, LMP2 (β1i).
Where [4] appears, read: Subunit-Specific Cell lysate IC50, LMP2 (β1i).

SMILES strings stand for the structures. Read-outs that look alike come from different tables or passages of the source.

For `CC(C)C[C@H](NC(=O)[C@H](Cc1ccc(-c2ccccc2)cc1)NC(=O)[C@@H]1CCCN1C(=O)CNC(=O)c1cnccn1)C(=O)[C@@]1(C)CO1` [Analogue 22], the IC50 in assay [1] came to 5000 nM; at LMP2/β1i (setting [3]), 90 nM.
Consider `CC(C)C[C@H](NC(=O)[C@H](Cc1ccc2ccccc2c1)NC(=O)[C@@H]1CCCN1C(=O)CNC(=O)c1cnccn1)C(=O)[C@@]1(C)CO1` [Analogue 23], for which the IC50 at LMP2/β1i (setting [3]) was 60 nM.
With `CC(=O)NCC(=O)N1CCCCC1C(=O)N[C@@H](Cc1ccccc1)C(=O)N[C@@H](CC(C)C)C(=O)[C@@]1(C)CO1` (stereo partly shown) [Analogue 14], the half-maximal inhibitory concentration (IC50) is 1000 nM in assay [1] and 120 nM at LMP2/β1i (setting [3]).
For the compound `CC(C)C[C@H](NC(=O)[C@H](CCc1ccccc1)NC(=O)[C@@H]1CCCN1C(=O)CNC(=O)c1cnccn1)C(=O)[C@@]1(C)CO1` [Analogue 20], the 50% inhibitory concentration (IC50) on LMP2/β1i (setting [3]) was found to be 100 nM.
In the case of `CC(=O)NCC(=O)N1CC(F)(F)C[C@H]1C(=O)N[C@@H](Cc1ccccc1)C(=O)N[C@@H](CC(C)C)C(=O)[C@@]1(C)CO1` [Analogue 12], the results for the IC50 (in assay [1]; at LMP2/β1i (setting [3])) were more than 10000 nM and 70 nM, respectively.
For `CC(=O)NCC(=O)N1CCC[C@H]1C(=O)N[C@@H](CCc1ccccc1)C(=O)N[C@@H](CC(C)C)C(=O)[C@@]1(C)CO1` [Analogue 13], the figures for the 50% inhibitory concentration (IC50) (in assay [1]; on LMP2/β1i (setting [3])) were more than 10000 nM and 60 nM, respectively.
For `CC(=O)NCC(=O)N1CCC[C@H]1C(=O)N[C@@H](Cc1cccc2ccccc12)C(=O)N[C@@H](CC(C)C)C(=O)[C@@]1(C)CO1` [Analogue 10], in that order: more than 10000 nM and 30 nM.
As to `CC(=O)NCC(=O)N1CCC[C@H]1C(=O)N[C@@H](Cc1ccc(-c2ccccc2)cc1)C(=O)N[C@@H](CC(C)C)C(=O)[C@@]1(CO)CO1` [Analogue 4], the 50% inhibitory concentration (IC50) in assay [1] was more than 10000 nM; at LMP2/β1i (setting [3]), 650 nM.
In the case of `CC(C)C[C@H](NC(=O)[C@H](Cc1ccccc1)NC(=O)[C@@H]1CCCN1C(=O)CN1CCOCC1=O)C(=O)[C@@]1(C)CO1` [Analogue 3], the half-maximal inhibitory concentration (IC50) in assay [1] is more than 10000 nM; on LMP2/β1i (setting [3]) it was 1000 nM.
As for `CC(=O)NCC(=O)N1CCC[C@H]1C(=O)N[C@@H](Cc1ccc(NC(=O)c2ccccc2)cc1)C(=O)N[C@@H](CC(C)C)C(=O)[C@@]1(C)CO1` [Analogue 18], the IC50 came to 5000 nM in assay [1] and 70 nM against LMP2/β1i (setting [4]).
`CC(=O)NCC(=O)N1CCC[C@H]1C(=O)N[C@@H](Cc1ccc2ccccc2c1)C(=O)N[C@@H](CC(C)C)C(=O)[C@@]1(C)CO1` [Analogue 7]: the results for the 50% inhibitory concentration (IC50) (in assay [1]; at LMP2/β1i (setting [3])) were more than 10000 nM and 30 nM, respectively.
For the compound `CC(C)C[C@H](NC(=O)[C@H](Cc1ccccc1)NC(=O)[C@@H]1CCCN1C(=O)c1cccc(O)n1)C(=O)[C@@]1(C)CO1` [Analogue 2], the figures for the IC50 (in assay [1]; at LMP2/β1i (setting [3])) were more than 10000 nM and 1000 nM, respectively.
In the same order, the values of `CC(C)C[C@H](NC(=O)[C@H](Cc1ccccc1)NC(=O)[C@@H]1CCCN1C(=O)CNC(=O)c1cccc(O)n1)C(=O)[C@@]1(C)CO1` [Analogue 17] are more than 10000 nM and 140 nM.
For `CC(=O)NCC(=O)N1CCC[C@H]1C(=O)N[C@@H](Cc1ccc(-c2ccccc2)cc1)C(=O)N[C@@H](CC(C)C)C(=O)[C@@]1(C)CO1` [Analogue 8], the IC50 in assay [1] was 5000 nM; at LMP2/β1i (setting [3]), 20 nM.
As for `COc1ccc(C[C@H](NC(=O)[C@H](C)NC(=O)CN2CCOCC2)C(=O)N[C@@H](Cc2ccccc2)C(=O)[C@@]2(C)CO2)cc1` [ONX-0914], the “IL-6 production induced by LPS” value in the assay on BV-2 cells was “less effective in blocking IL-6 production”. Also, in assay [2], the “LPS-induced cytokine production including IL-6” value is listed as “almost completely blocked”.
Take `CC(C)C[C@H](NC(=O)[C@H](Cc1ccccc1)NC(=O)[C@@H]1CCCN1C(=O)CNC(=O)S(C)(=O)=O)C(=O)[C@@]1(C)CO1` [Analogue 27]: the half-maximal inhibitory concentration (IC50) in assay [1] was more than 10000 nM; at LMP2/β1i (setting [3]), 110 nM.
Take `CCc1ccc(C[C@H](NC(=O)[C@@H]2CCCN2C(=O)CNC(C)=O)C(=O)N[C@@H](CC(C)C)C(=O)[C@@]2(C)CO2)cc1` [Analogue 9]: the IC50 is more than 10000 nM in assay [1] and 130 nM on LMP2/β1i (setting [3]).
`Cc1ncc(C(=O)NCC(=O)N2CCC[C@H]2C(=O)N[C@@H](Cc2ccc3ccccc3c2)C(=O)N[C@@H](CC(C)C)C(=O)[C@@]2(C)CO2)s1` [Analogue 26]: at LMP2/β1i (setting [3]), the IC50 is 90 nM.
`Cc1ncc(C(=O)NCC(=O)N2CCC[C@H]2C(=O)N[C@@H](CCc2ccccc2)C(=O)N[C@@H](CC(C)C)C(=O)[C@@]2(C)CO2)s1` [Analogue 19]: the half-maximal inhibitory concentration (IC50) is more than 10000 nM in assay [1] and 180 nM on LMP2/β1i (setting [3]).
In the same order, the values of `CC(=O)NCC(=O)N1CCC[C@H]1C(=O)N[C@@H](Cc1ccc(NC(=O)CN2CCOCC2)cc1)C(=O)N[C@@H](CC(C)C)C(=O)[C@@]1(C)CO1` [Analogue 29] are more than 10000 nM and 90 nM.
Consider `CC(C)C[C@H](NC(=O)[C@H](Cc1ccccc1)NC(=O)[C@@H]1CCCN1C(=O)CNC(=O)C(F)(F)F)C(=O)[C@@]1(C)CO1` [Analogue 25], for which the 50% inhibitory concentration (IC50) in assay [1] was more than 10000 nM; at LMP2/β1i (setting [3]), 130 nM.
For the compound `Cc1ncc(C(=O)NCC(=O)N2CCC[C@H]2C(=O)N[C@@H](Cc2ccccc2)C(=O)N[C@@H](CC(C)C)C(=O)[C@@]2(C)CO2)s1` [Analogue 15], the IC50 in assay [1] is more than 10000 nM; on LMP2/β1i (setting [3]), 100 nM.
Take `CC(C)C[C@H](NC(=O)[C@H](Cc1ccccc1)NC(=O)[C@@H]1CCCN1C(=O)CN1CCOCC1)C(=O)[C@@]1(C)CO1` [Analogue 1]: the figures for the IC50 (in assay [1]; at LMP2/β1i (setting [3])) were more than 10000 nM and 1200 nM, respectively.
For `CC(=O)NCC(=O)N1CCC[C@H]1C(=O)N[C@@H](Cc1ccccc1)C(=O)N[C@@H](CC(C)C)C(=O)[C@@]1(CO)CO1` [Analogue 11], in that order: more than 10000 nM and 60 nM.
With `CC(=O)NCC(=O)N1CCC[C@H]1C(=O)N[C@@H](Cc1ccncc1)C(=O)N[C@@H](CC(C)C)C(=O)[C@@]1(C)CO1` [Analogue 30], the half-inhibitory concentration (IC50) at LMP2/β1i (setting [3]) was 120 nM.
As to `Cc1ncc(C(=O)NCC(=O)N2CCC[C@H]2C(=O)N[C@@H](Cc2ccc(-c3ccccc3)cc2)C(=O)N[C@@H](CC(C)C)C(=O)[C@@]2(C)CO2)s1` [Analogue 24], on LMP2/β1i (setting [3]), the half-inhibitory concentration (IC50) amounted to 130 nM.
As for `CC(=O)NCC(=O)N1CCC[C@H]1C(=O)N[C@@H](Cc1ccc2ccccc2c1)C(=O)N[C@@H](CC(C)C)C(=O)[C@@]1(CO)CO1` [Analogue 6], the IC50 in assay [1] came out at 7000 nM; on LMP2/β1i (setting [3]) it was 2200 nM.
For `Cc1cc(C(=O)NCC(=O)N2CCC[C@H]2C(=O)N[C@@H](CCc2ccccc2)C(=O)N[C@@H](CC(C)C)C(=O)[C@@]2(C)CO2)no1` [Analogue 21], in that order: more than 10000 nM and 130 nM.
In the case of `CC(=O)NCC(=O)N1CCC[C@H]1C(=O)N[C@@H](Cc1ccc2ccccc2c1)C(=O)N[C@@H](CC(C)C)C(=O)[C@@]1(CO[Si](c2ccccc2)(c2ccccc2)C(C)(C)C)CO1` [Analogue 5], the IC50 (in assay [1]; on LMP2/β1i (setting [4])) was more than 10000 nM throughout.
As to `CC(=O)NCC(=O)N1CCC[C@H]1C(=O)N[C@@H](Cc1ccc(NC(=O)c2cnccn2)cc1)C(=O)N[C@@H](CC(C)C)C(=O)[C@@]1(C)CO1` [Analogue 28], the IC50 in assay [1] was more than 10000 nM; against LMP2/β1i (setting [4]) it was 30 nM.

Usually IC50 stands for the midpoint of a concentration-inhibition curve.

The record behind these values is patent US20190161516A1, “PROTEASOME INHIBITORS” (University of Kentucky Research Foundation, priority 2017, published 2019).
